According to US7351737B2, “4-[(8-substituted)-6-chromanoyl]-and 4-[8-substituted)-chroman-6-YL-ethynyl]-benzoic and phenylacetic acids, their esters and salts having cytochrome P450RAI inhibitory activity” (Allergan, Inc., priority 2002, dated 2008):
pIC50, pKd: −log10 of the molar value.

Columns and labels:
[1] = molecular target: T1, RARβ (Homo sapiens, UniProt P10826); experiment: ligand binding assay, RARβ; settings: last item of cell, read-out: RAR β Kd
T1 sequence (P10826 1-455): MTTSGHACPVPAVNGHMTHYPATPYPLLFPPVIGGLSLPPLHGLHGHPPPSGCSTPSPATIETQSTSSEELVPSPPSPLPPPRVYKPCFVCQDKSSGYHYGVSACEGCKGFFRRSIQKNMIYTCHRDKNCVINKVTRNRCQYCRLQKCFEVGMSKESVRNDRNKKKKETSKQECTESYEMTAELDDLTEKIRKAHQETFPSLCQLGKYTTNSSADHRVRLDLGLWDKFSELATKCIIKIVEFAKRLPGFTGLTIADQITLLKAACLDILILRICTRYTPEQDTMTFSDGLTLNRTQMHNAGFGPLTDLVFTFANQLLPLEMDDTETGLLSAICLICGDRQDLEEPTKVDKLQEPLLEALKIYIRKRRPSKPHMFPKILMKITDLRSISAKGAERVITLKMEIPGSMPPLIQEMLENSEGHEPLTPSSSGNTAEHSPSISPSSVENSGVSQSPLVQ
Source text: (§1) Assays described below measure the ability of a compound to bind to, and/or activate various retinoid receptor subtypes. When in these assays a compound binds to a given receptor subtype and activates the transcription of a reporter gene through that subtype, then the compound is considered an agonist of that receptor subtype. […] In the below described assays the ability of the compounds to bind to RARα, RARβ, RARγ, RXRα, RXRβ and RXRγ receptors, and the ability or inability of the compounds to activate transcription of a reporter gene through these receptor subtypes can be tested.
(§2) A holoreceptor transactivation assay and a ligand binding assay which measure the antagonist/agonist like activity of the compounds of the invention, or their ability to bind to the several retinoid receptor subtypes, respectively, are described in published PCT Application No. WO WO93/11755 (particularly on pages 30-33 and 37-41) published on Jun. 24, 1993, the specification of which is also incorporated herein by reference. A detailed experimental procedure for holoreceptor transactivations has been described by Heyman et al. Cell 68, 397-406, (1992); Allegretto et al. J. Biol. Chem. 268, 26625-26633, and Mangelsdorf et al. The Retinoids: Biology, Chemistry and Medicine, pp 319-349, Raven Press Ltd., New York, which are expressly incorporated herein by reference. The results obtained in this assay are expressed in EC50 numbers, as they are also in the chimeric receptor transactivation assay. The results of ligand binding assay are expressed in Kd numbers. (See Cheng et al. Biochemical Pharmacology Vol. 22 pp 3099-3108, expressly incorporated herein by reference.)
(§3) The results of the ligand binding assay for several preferred compounds of the invention are included in Table 1.

[2] = molecular target: T2, RARγ (Homo sapiens, UniProt P13631); experiment: ligand binding assay, RARγ; settings: last item of cell, read-out: RAR γ Kd
T2 sequence (P13631 1-454): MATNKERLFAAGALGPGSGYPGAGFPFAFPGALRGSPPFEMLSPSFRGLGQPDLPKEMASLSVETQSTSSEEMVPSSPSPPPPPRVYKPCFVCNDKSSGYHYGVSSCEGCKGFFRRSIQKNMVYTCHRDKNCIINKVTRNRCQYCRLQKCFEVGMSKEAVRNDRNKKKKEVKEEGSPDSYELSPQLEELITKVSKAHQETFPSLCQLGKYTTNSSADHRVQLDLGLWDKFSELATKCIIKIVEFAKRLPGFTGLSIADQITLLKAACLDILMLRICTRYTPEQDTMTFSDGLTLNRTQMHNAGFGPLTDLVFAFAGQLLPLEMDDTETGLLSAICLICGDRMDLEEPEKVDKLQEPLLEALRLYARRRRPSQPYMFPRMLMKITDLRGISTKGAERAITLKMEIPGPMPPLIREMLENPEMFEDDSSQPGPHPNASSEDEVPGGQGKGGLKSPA
Source text: as §1, §2, §3

[3] = molecular target: T3, P450RAI-2 (Homo sapiens, UniProt Q9NR63); experiment: P450RAI-2 cell-based inhibitor assay ([3H]-RA metabolism, intact cells); settings: P450RAI-2 stably transfected HeLa cells, 3 hours at 37° C., all-trans-RA metabolism; read-out: P450RAI INHIBITION DATA RAI-2 Intact Cells IC50
T3 construct: expressed in transfected cells; host or cells: HeLa
T3 sequence (Q9NR63 1-512): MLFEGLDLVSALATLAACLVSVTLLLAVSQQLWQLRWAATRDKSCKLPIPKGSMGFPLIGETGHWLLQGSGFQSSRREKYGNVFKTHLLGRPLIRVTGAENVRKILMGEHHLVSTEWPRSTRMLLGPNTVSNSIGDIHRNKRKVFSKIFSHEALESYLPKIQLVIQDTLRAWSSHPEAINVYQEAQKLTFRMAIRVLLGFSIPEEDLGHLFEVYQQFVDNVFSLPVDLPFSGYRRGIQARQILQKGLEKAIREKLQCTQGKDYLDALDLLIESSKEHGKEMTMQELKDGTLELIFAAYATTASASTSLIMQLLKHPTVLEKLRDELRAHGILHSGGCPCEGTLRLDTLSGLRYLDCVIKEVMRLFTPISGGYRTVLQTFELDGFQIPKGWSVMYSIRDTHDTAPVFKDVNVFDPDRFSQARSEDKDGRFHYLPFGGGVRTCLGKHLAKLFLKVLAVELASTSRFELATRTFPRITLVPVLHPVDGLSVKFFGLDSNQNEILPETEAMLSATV
Method: FIG. 1 is a schematic representation of the P450RAI cell based assay utilized to evaluate the ability of the compounds of the invention to inhibit the Cytochrome P450RAI enzyme.
P450RAI-1 and P450RAI-2 Cell-Based Inhibitor Assay:
P450RAI-1 stably transfected HeLa cells, or P450RAI-2 stably transfected HeLa cells, as applicable, are maintained in […] tissue culture dishes in Modified Eagle's Medium (MEM) containing 10% Fetal Bovine Serum (FBS) and 100 μg/ml hygromycin. Exponentially growing cells are harvested by incubating in trypsin. Cells are then washed with 1X Phosphate Buffered Saline (PBS) and plated in a 48-well plate at 5×10^5 cells in 0.2 ml MEM medium containing 10% FBS and 0.05 μCi [^3H]-RA in the presence or absence of increasing concentrations of the test compounds. The compounds are diluted in 100% DMSO and then added in triplicate wells at either 10, 1 or 0.1 μM final concentration. As a positive control for RA metabolism inhibition, cells are also incubated with ketoconazole at 100, 10 and 1 μM. Cells are incubated for 3 hours at 37° C. The retinoids are then extracted using the procedure of Bligh et al. (1959) Canadian Journal of Biochemistry 37, 911-917, modified by using methylenechloride instead of chloroform. The publication Bligh et al. (1959) Canadian Journal of Biochemistry 37, 911-917 is specifically incorporated herein by reference. The water soluble radioactivity is quantified using a β-scintillation counter. IC50 values represent the concentration of inhibitor required to inhibit all-trans-RA metabolism by 50 percent and are derived manually from log-transformed data.

Row | Compound | pKd [1] | pKd [2] | pIC50 [3]
1 | C#Cc1cc(C(=O)Oc2ccc(CC(=O)O)cc2)cc2c1OC(C)(C)CC2(C)C [Compound 1, 8-Ethynyl-2,2,4,4-tetramethyl-chroman-6-carboxylic acid 4-carboxymethyl-phenyl ester] | < 5.00 | < 5.00 | 7.85
2 | C#Cc1cc(C(=O)Oc2ccc(CC(=O)OCOC(C)=O)cc2)cc2c1OC(C)(C)CC2(C)C [Compound 3, 8-Ethynyl-2,2,4,4-tetramethyl-chroman-6-carboxylic acid 4-acetoxymethoxycarbonylmethyl-phenyl ester] | < 5.00 | < 5.00 | 7.10
3 | C#Cc1cc(C(=O)Oc2ccc(CC(=O)OCOC(C)=O)c(F)c2)cc2c1OC(C)(C)CC2(C)C [Compound 5, 8-Ethynyl-2,2,4,4-tetramethyl-chroman-6-carboxylic acid 4-acetoxymethoxycarbonylmethyl-3-fluoro-phenyl ester] | 5.26 | < 5.00 | 7.52
4 | CC1(C)CC(C)(C)c2cc(C(=O)Oc3ccc(CC(=O)O)c(F)c3)cc(C#N)c2O1 [Compound 32, 8-Cyano-2,2,4,4-tetramethyl-chroman-6-carboxylic acid-4-carboxymethyl-3-fluoro-phenyl ester] | < 5.00 | < 5.00 | 6.05
5 | CC(=O)OCOC(=O)Cc1ccc(OC(=O)c2cc(C#N)c3c(c2)C(C)(C)CC(C)(C)O3)cc1F [Compound 33, 8-Cyano-2,2,4,4-tetramethyl-chroman-6-carboxylic acid 4-acetoxymethoxycarbonylmethyl-3-fluoro-phenyl ester] | < 5.00 | < 5.00 | 6.15

Results, then the compound that gave them:

Row | pKd [1] | pKd [2] | pIC50 [3] | Compound
6 | < 5.00 | < 5.00 | 5.22 | C#Cc1cc(C(=O)Oc2ccc(CC(=O)OCC)cc2)cc2c1OC(C)(C)CC2(C)C [Compound 2, 8-Ethynyl-2,2,4,4-tetramethyl-chroman-6-carboxylic acid 4-ethoxycarbonylmethyl-phenyl ester]
7 | 5.18 | < 5.00 | 7.22 | C#Cc1cc(C(=O)Oc2ccc(CC(=O)O)c(F)c2)cc2c1OC(C)(C)CC2(C)C [Compound 4, 8-Ethynyl-2,2,4,4-tetramethyl-chroman-6-carboxylic acid-4-carboxymethyl-3-fluoro-phenyl ester]
8 | 5.12 | < 5.00 | 8.15 | C#Cc1cc(C#Cc2ccc(CC(=O)O)cc2)cc2c1OC(C)(C)CC2(C)C [Compound 40, [4-(8-Ethynyl-2,2,4,4-tetramethyl-chroman-6-ylethynyl)-phenyl]-acetic acid]
9 | 5.31 | < 5.00 | 8.40 | C#Cc1cc(C#Cc2ccc(CC(=O)O)c(F)c2)cc2c1OC(C)(C)CC2(C)C [Compound 41, [4-(8-Ethynyl-2,2,4,4-tetramethyl-chroman-6-ylethynyl)-2-fluoro-phenyl]-acetic acid]
10 | < 5.00 | 5.08 | 6.92 | C#CCc1cc(C#Cc2ccc(CC(=O)O)cc2)cc2c1OC(C)(C)CC2(C)C [Compound 49]
